Test results as given in US20080261994A1, “CYCLOPROPANE COMPOUNDS AND PHARMACEUTICAL USE THEREOF” (Japan Tobacco Inc., priority 2003, published 2008).

Key:
Assay type in all cases: biochemical
MMP-1 = biological target: T1, MMP-1 (Homo sapiens, UniProt P03956); assay: MMP-1 inhibitory action (Type I collagen Activity Measurement kit, FITC-labeled collagen type I); conditions: Experimental Example 2; read-out: IC50 MMP1
T1 sequence (P03956 100-469): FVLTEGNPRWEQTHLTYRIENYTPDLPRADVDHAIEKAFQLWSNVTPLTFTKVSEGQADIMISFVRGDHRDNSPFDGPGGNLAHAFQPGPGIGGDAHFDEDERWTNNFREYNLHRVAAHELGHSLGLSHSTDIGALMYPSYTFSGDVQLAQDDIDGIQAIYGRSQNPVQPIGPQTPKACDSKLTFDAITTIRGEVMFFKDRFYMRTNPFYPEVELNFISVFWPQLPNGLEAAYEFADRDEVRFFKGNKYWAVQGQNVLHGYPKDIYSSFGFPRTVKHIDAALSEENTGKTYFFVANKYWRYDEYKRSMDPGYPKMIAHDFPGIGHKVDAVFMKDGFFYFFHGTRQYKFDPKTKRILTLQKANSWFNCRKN

aggrecanase-1 = biological target: T2, aggrecanase-1 (Homo sapiens, UniProt O75173); assay: Aggrecanase-1 inhibitory action (Particle Assay, GAG release from aggrecan-containing polyacrylamide particles); conditions: Experimental Example 1; read-out: IC50 AG1
T2 sequence (O75173 213-837): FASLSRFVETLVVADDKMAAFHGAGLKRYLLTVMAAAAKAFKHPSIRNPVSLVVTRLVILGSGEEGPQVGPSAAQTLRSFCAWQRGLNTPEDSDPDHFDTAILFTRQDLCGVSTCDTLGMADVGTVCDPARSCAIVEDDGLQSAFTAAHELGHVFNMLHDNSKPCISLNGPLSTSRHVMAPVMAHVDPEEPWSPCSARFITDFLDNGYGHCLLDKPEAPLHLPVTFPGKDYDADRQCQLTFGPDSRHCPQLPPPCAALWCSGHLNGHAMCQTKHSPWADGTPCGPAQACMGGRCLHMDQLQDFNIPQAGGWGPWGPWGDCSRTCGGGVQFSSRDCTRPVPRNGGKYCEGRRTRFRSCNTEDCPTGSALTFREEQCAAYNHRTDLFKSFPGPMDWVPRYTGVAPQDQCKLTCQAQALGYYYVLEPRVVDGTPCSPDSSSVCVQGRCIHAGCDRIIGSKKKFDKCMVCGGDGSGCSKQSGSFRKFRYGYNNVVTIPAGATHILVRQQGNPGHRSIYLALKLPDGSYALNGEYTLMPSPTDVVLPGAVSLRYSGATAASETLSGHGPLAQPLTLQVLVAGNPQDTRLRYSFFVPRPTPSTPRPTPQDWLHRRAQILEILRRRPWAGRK
Method in brief: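 Readout was dimethylmethylene blue absorbance (595 nm) of glycosaminoglycan liberated into supernatant, calibrated with whale chondroitin sulfate. Substrate was aggrecan in polyacrylamide particles, digested 15 h at 37° C in Tris-HCl; TC50 (μM) derived from inhibition relative to no-enzyme and no-inhibitor controls.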

Recombinant Human MMP-13 = biological target: T3, Recombinant Human MMP-13 (Homo sapiens, UniProt P45452); assay: MMP-13 inhibitory activity (MMP-13 specific fluorescent substrate with quencher); conditions: Experimental Example 3; read-out: IC50 MMP13
T3 construct: purchased R&D systems 511-MM
Method in brief: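 IC50 (μM) derived from % inhibition, normalised to wells without enzyme and without inhibitor, fluorescence read at 325/405 nm. Enzyme and compound preceded addition of the quenched 7-MCA…DPA substrate; Tris-HCl buffer, 25 °C for 1 h, acetic-acid stop.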

| SMILES | IC50 (MMP-1) [nM] | IC50 (aggrecanase-1) [nM] | IC50 (Recombinant Human MMP-13) [nM] |
| --- | --- | --- | --- |
| O=C(O)C1(NS(=O)(=O)c2ccc(OCc3ccc(Cl)cc3Cl)cc2)C2Cc3ccccc3C21 (stereo not drawn) [Example 2-446] | ≥ 10000 | ≥ 1000 | ≥ 1000 |
| O=C(NO)C1(NS(=O)(=O)c2ccc(-c3ccc(Cl)cc3)s2)C2Cc3ccccc3C21 (stereo not drawn) [Example 2-447] | < 1000 | < 1000 | < 100 |
| C[C@]1(c2ccccc2)C[C@@]1(NS(=O)(=O)c1ccc(-c2cc(Cl)cc(Cl)c2)s1)C(=O)O [Example 2-448] | ≥ 10000 | ≥ 1000 | ≥ 1000 |
| C[C@]1(c2ccccc2)C[C@@]1(NS(=O)(=O)c1ccc(-c2ccc3c(c2)OCO3)s1)C(=O)O [Example 2-449] | ≥ 1000 | < 100 | < 100 |
| CC1[C@H](c2ccccc2)[C@]1(NS(=O)(=O)c1ccc(-c2cn(C)cn2)s1)C(=O)O (stereo partly drawn) [Example 2-450] | ≥ 10000 | < 1000 | < 1000 |
| Cc1nc(-c2ccc(S(=O)(=O)N[C@@]3(C(=O)O)C(C)[C@@H]3c3ccccc3)s2)no1 (stereo partly drawn) [Example 2-451] | ≥ 10000 | ≥ 1000 | ≥ 1000 |
| C[C@]1(c2ccccc2)C[C@@]1(NS(=O)(=O)c1ccc(-c2cccc(N)c2)s1)C(=O)O [Example 2-452] | < 1000 | < 1000 | < 100 |
| C[C@]1(c2ccccc2)C[C@@]1(NS(=O)(=O)c1ccc(-c2cccc(NS(C)(=O)=O)c2)s1)C(=O)O [Example 2-453] | ≥ 10000 | ≥ 1000 | < 1000 |
| CC1[C@H](c2ccccc2)[C@]1(NS(=O)(=O)N1CCCN(c2ccc(Cl)cc2)CC1)C(=O)O (stereo partly drawn) [Example 2-454] | ≥ 10000 | < 1000 | ≥ 1000 |
| CC1[C@H](c2ccccc2)[C@]1(NS(=O)(=O)N1CCN(c2ccc(Cl)cn2)CC1)C(=O)O (stereo partly drawn) [Example 2-457] | ≥ 1000 | < 100 | < 100 |
| CC1[C@H](c2ccccc2)[C@]1(NS(=O)(=O)N1CCN(c2ccc(Br)cc2)CC1)C(=O)O (stereo partly drawn) [Example 2-458] | ≥ 10000 | < 1000 | < 100 |
| CC1[C@H](c2ccccc2)[C@]1(NS(=O)(=O)N1CCN(c2ccc(Cl)c(F)c2)CC1)C(=O)O (stereo partly drawn) [Example 2-459] | ≥ 1000 | < 1000 | < 100 |
| CC1[C@H](c2ccccc2)[C@]1(NS(=O)(=O)N1CCN(c2ccc(Cl)cc2F)CC1)C(=O)O (stereo partly drawn) [Example 2-460] | ≥ 1000 | < 1000 | < 100 |
| CC1[C@H](c2ccccc2)[C@]1(NS(=O)(=O)N1CCCN(c2ccc(Cl)cn2)CC1)C(=O)O (stereo partly drawn) [Example 2-461] | ≥ 10000 | < 1000 | ≥ 1000 |
| CC1[C@H](c2ccccc2)[C@]1(NS(=O)(=O)N1CCCN(c2ccc(F)cn2)CC1)C(=O)O (stereo partly drawn) [Example 2-462] | ≥ 1000 | < 1000 | ≥ 1000 |
| CC1[C@H](c2ccccc2)[C@]1(NS(=O)(=O)N1CCN(c2nc3ccccc3s2)CC1)C(=O)O (stereo partly drawn) [Example 2-463] | ≥ 10000 | ≥ 1000 | ≥ 1000 |
| CC1[C@H](c2ccccc2)[C@]1(NS(=O)(=O)N1CCN(c2nc3ccccc3o2)CC1)C(=O)O (stereo partly drawn) [Example 2-464] | ≥ 10000 | ≥ 1000 | ≥ 1000 |

| SMILES | IC50 (MMP-1) [nM] | IC50 (aggrecanase-1) [nM] | IC50 (Recombinant Human MMP-13) [nM] |
| --- | --- | --- | --- |
| Cc1nnc(N2CCN(S(=O)(=O)N[C@@]3(C(=O)O)C(C)[C@@H]3c3ccccc3)CC2)s1 (stereo partly drawn) [Example 2-465] | ≥ 10000 | ≥ 1000 | ≥ 10000 |
| C[C@]1(c2ccccc2)C[C@@]1(NS(=O)(=O)c1ccc(-c2ncc(F)cc2F)s1)C(=O)O [Example 2-466] | ≥ 1000 | < 1000 | ≥ 1000 |
| C[C@]1(c2ccccc2)C[C@@]1(NS(=O)(=O)c1ccc(N2CCC(F)(F)C2)s1)C(=O)O [Example 2-467] | ≥ 10000 | ≥ 1000 | ≥ 10000 |
| CC1[C@H](c2ccccc2)[C@]1(NS(=O)(=O)c1ccc(-c2ccc3c(c2)OCO3)s1)C(=O)O (stereo partly drawn) [Example 2-470] | < 1000 | < 100 | < 100 |
| CC1[C@H](c2ccccc2)[C@]1(NS(=O)(=O)N1CCCN(c2cccc(Cl)c2)CC1)C(=O)O (stereo partly drawn) [Example 2-471] | ≥ 10000 | ≥ 1000 | ≥ 1000 |
| CC1[C@H](c2ccccc2)[C@]1(NS(=O)(=O)N1CCCN(c2ccc(F)cc2)CC1)C(=O)O (stereo partly drawn) [Example 2-472] | ≥ 1000 | < 1000 | ≥ 10000 |
| O=C(Nc1ccc(S(=O)(=O)N[C@@]2(C(=O)O)C[C@@H]2c2ccccc2)cc1)c1ccccc1 [Example 2-473] | ≥ 10000 | ≥ 1000 | ≥ 1000 |
| O=C(Nc1ccccc1)c1ccc(S(=O)(=O)N[C@@]2(C(=O)O)C[C@@H]2c2ccccc2)cc1 [Example 2-474] | ≥ 10000 | ≥ 1000 | ≥ 1000 |
| Cc1cc(N2CCN(S(=O)(=O)N[C@@]3(C(=O)O)C(C)[C@@H]3c3ccccc3)CC2)no1 (stereo partly drawn) [Example 2-475] | ≥ 10000 | ≥ 1000 | ≥ 1000 |
| Cc1cc(N2CCN(S(=O)(=O)N[C@@]3(C(=O)O)C(C)[C@@H]3c3ccccc3)CC2=O)no1 (stereo partly drawn) [Example 2-476] | ≥ 10000 | ≥ 1000 | ≥ 10000 |
| C[C@]1(c2ccccc2)C[C@@]1(NS(=O)(=O)c1ccc(-c2ccc(Cl)c([N+](=O)[O-])c2)s1)C(=O)O [Example 2-477] | ≥ 10000 | ≥ 1000 | ≥ 1000 |
| CCOC(=O)c1cccc(-c2ccc(S(=O)(=O)N[C@@]3(C(=O)O)C[C@]3(C)c3ccccc3)s2)c1 [Example 2-478] | ≥ 10000 | ≥ 1000 | ≥ 10000 |
| C[C@]1(c2ccccc2)C[C@@]1(NS(=O)(=O)c1ccc(-c2cccc(C(=O)O)c2)s1)C(=O)O [Example 2-479] | ≥ 10000 | ≥ 1000 | ≥ 10000 |
| CC(=O)Nc1cccc(-c2ccc(S(=O)(=O)N[C@@]3(C(=O)O)C[C@]3(C)c3ccccc3)s2)c1 [Example 2-480] | < 1000 | < 1000 | < 100 |
| Cc1cnn(-c2ccc(S(=O)(=O)N[C@@]3(C(=O)O)C[C@@H]3c3ccccc3)cn2)c1 [Example 2-481] | ≥ 10000 | ≥ 1000 | < 100 |
| COc1cnn(-c2ccc(S(=O)(=O)N[C@@]3(C(=O)O)C[C@@H]3c3ccccc3)cn2)c1 [Example 2-482] | ≥ 10000 | ≥ 1000 | < 100 |
| Cc1nc2cc(N3CCN(S(=O)(=O)N[C@@]4(C(=O)O)C(C)[C@@H]4c4ccccc4)CC3)ccc2s1 (stereo partly drawn) [Example 2-483] | ≥ 10000 | ≥ 1000 | ≥ 1000 |
